# Test results as given in patent US9809625B2, “Immunomodulators” (BRISTOL-MYERS SQUIBB COMPANY, priority 2015, dated 2017).
# pIC50: −log10 of the molar value. Bridge positions count the residues as written; N and C are the ends. Square brackets hold non-standard residues; d marks the D form. Peptide text beside a SMILES is read from it. * marks the point of attachment. ξ: configuration not given here. Piperazinyl(4-Ph) = c1ccc(N2CCN(*)CC2)cc1; Hyp = O=C(O)[C@@H]1C[C@@H](O)CN1; Piperazinyl(4-Me) = CN1CCN(*)CC1; ξW = NC(Cc1c[nH]c2ccccc12)C(=O)O; NMeNle = CCCC[C@H](NC)C(=O)O; X3 = CN(CCN*)C(=O)OC(C)(C)C; X7 = CC(C)(C)OC(=O)NCCCCCN*; NMeA = CN[C@@H](C)C(=O)O; Dap = NC[C@H](N)C(=O)O; X8 = c1ccc(SCCN*)cc1; X11 = OC1CCC(N*)CC1; NHCH2CH2OH = OCCN*; OtBu = CC(C)(C)O*; βAla = NCCC(=O)O; NHcPr = C1CC1N*; NHBu = CCCCN*
# Molecular target: T1, PD-1-Ig binding to PD-L1-TVMV-His (PD-L1-His) (Homo sapiens, UniProt Q9NZQ7)
# T1 construct: hPDL1(19-239)-TVMV-His; TVMV protease cleavage site (C); made in house; host or cells: HEK293T
# Test: PD-1/PD-L1 Homogenous Time-Resolved Fluorescence (HTRF) binding assay
# Conditions: PD-1-Ig (20 nM)/PD-L1-His (10 nM), range classes
# Text: Methods for Testing the Ability of Macrocyclic Peptides to Compete for the Binding of PD-1 to PD-L1 Using Homogenous Time-Resolved Fluorescence (HTRF) Binding Assays
# The ability of the macrocyclic peptides of the present disclosure to bind to PD-L1 was investigated using a PD-1/PD-L1 Homogenous Time-Resolved Fluorescence (HTRF) binding assay.
# Homogenous Time-Resolved Fluorescence (HTRF) Assays of Binding of Soluble PD-1 to Soluble PD-L1. Soluble PD-1 and soluble PD-L1 refers to proteins with carboxyl-end truncations that remove the transmembrane-spanning regions and are fused to heterologous sequences, specifically the Fc portion of the human immunoglobuling G sequence (Ig) or the hexahistidine epitope tag (His). All binding studies were performed in an HTRF assay buffer consisting of dPBS supplemented with 0.1% (w/v) bovine serum albumin and 0.05% (v/v) Tween-20. For the PD-1-Ig/PD-L1-His binding assay, inhibitors were pre-incubated with PD-L1-His (10 nM final) for 15 m in 4 μl of assay buffer, followed by addition of PD-1-Ig (20 nM final) in 1 μl of assay buffer and further incubation for 15 m. PD-L1 fusion proteins from either human, cynomologous macaques, mouse, or other species were used. HTRF detection was achieved using europium crypate-labeled anti-Ig monoclonal antibody (1 nM final) and allophycocyanin (APC) labeled anti-His monoclonal antibody (20 nM final). Antibodies were diluted in HTRF detection buffer and 5 μl was dispensed on top of binding reaction. The reaction was allowed to equilibrate for 30 minutes and signal (665 nm/620 nm ratio) was obtained using an EnVision fluorometer. Additional binding assays were established between PD-1-Ig/PD-L2-His (20 and 5 nM, respectively), CD80-His/PD-L1-Ig (100 and 10 nM, respectively) and CD80-His/CTLA4-Ig (10 and 5 nM, respectively). Binding/competition studies between biotinylated Compound No. 71 and human PD-L1-His were performed as follows. Macrocyclic peptide inhibitors were pre-incubated with PD-L1-His (10 nM final) for 60 minutes in 4 μl of assay buffer followed by addition of biotinylated Compound No. 71 (0.5 nM final) in 1 μl of assay buffer. Binding was allowed to equilibrate for 30 minutes followed by addition of europium crypated labeled Streptavidin (2.5 pM final) and APC-labeled anti-His (20 nM final) in 5 μl of HTRF buffer. The reaction was allowed to equilibrate for 30 m and signal (665 nm/620 nm ratio) was obtained using an EnVision fluorometer.
# Recombinant Proteins. Carboxyl-truncated human PD-1 (amino acids 25-167) with a C-terminal human Ig epitope tag [hPD-1 (25-167)-3S-IG] and human PD-L1 (amino acids 18-239) with a C-terminal His epitope tag [hPD-L1(19-239)-tobacco vein mottling virus protease cleavage site (TVMV)-His] were expressed in HEK293T cells and purified sequentially by recombinant Protein A affinity chromatography and size exclusion chromatography. Human PD-L2-His (Sino Biologicals), CD80-His (Sino Biologicals), CTLA4-Ig (RnD Systems) were all obtained through commercial sources.
# T1 sequence (Q9NZQ7 with tags, fused parts or gaps): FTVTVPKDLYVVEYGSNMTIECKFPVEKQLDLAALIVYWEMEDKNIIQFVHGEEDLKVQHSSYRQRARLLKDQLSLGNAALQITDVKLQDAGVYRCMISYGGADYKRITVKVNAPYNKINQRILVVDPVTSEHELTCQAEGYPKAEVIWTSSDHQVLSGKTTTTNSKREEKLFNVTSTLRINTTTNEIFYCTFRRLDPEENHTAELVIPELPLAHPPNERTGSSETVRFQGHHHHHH
row,SMILES,pIC50
1,CCCC[C@H]1C(=O)N(C)[C@@H](CCCC)C(=O)N[C@@H](CC(C)C)C(=O)N[C@H](C(=O)NCC(=O)NCCSc2ccccc2)CSCC(=O)N[C@@H](Cc2ccc(O)cc2)C(=O)N(C)[C@@H](C)C(=O)N[C@@H](CC(N)=O)C(=O)N2CCC[C@H]2C(=O)N[C@@H](CN)C(=O)N[C@@H](CC(C)C)C(=O)N2C[C@H](O)C[C@H]2C(=O)N[C@@H](Cc2c[nH]c3ccccc23)C(=O)NCC(=O)NC(Cc2c[nH]c3ccccc23)C(=O)N1C (stereo partly shown) [Example 13101] ({CH2CO}-Y[NMeA]NP[Dap]L[Hyp]WG[ξW][NMeNle][NMeNle]LCG-X8; thioether N-14),7.22 to 8.00
2,CCCC[C@H]1C(=O)N(C)[C@@H](CCCC)C(=O)N[C@@H](CC(C)C)C(=O)N[C@H](C(=O)NCC(=O)NCCO)CSCC(=O)N[C@@H](Cc2ccc(O)cc2)C(=O)N(C)[C@@H](C)C(=O)N[C@@H](CC(N)=O)C(=O)N2CCC[C@H]2C(=O)N[C@@H](CN)C(=O)N[C@@H](CC(C)C)C(=O)N2C[C@H](O)C[C@H]2C(=O)N[C@@H](Cc2c[nH]c3ccccc23)C(=O)NCC(=O)NC(Cc2c[nH]c3ccccc23)C(=O)N1C (stereo partly shown) [Example 13095] ({CH2CO}-Y[NMeA]NP[Dap]L[Hyp]WG[ξW][NMeNle][NMeNle]LCG-NHCH2CH2OH; thioether N-14),7.22 to 8.00
3,CCCC[C@H]1C(=O)N(C)[C@@H](CCCC)C(=O)N[C@@H](CC(C)C)C(=O)N[C@H](C(=O)NCC(=O)NC2CC2)CSCC(=O)N[C@@H](Cc2ccc(O)cc2)C(=O)N(C)[C@@H](C)C(=O)N[C@@H](CC(N)=O)C(=O)N2CCC[C@H]2C(=O)N[C@@H](CN)C(=O)N[C@@H](CC(C)C)C(=O)N2C[C@H](O)C[C@H]2C(=O)N[C@@H](Cc2c[nH]c3ccccc23)C(=O)NCC(=O)NC(Cc2c[nH]c3ccccc23)C(=O)N1C (stereo partly shown) [Example 13091] ({CH2CO}-Y[NMeA]NP[Dap]L[Hyp]WG[ξW][NMeNle][NMeNle]LCG-NHcPr; thioether N-14),8.00 to 8.40
4,CCCCNC(=O)CNC(=O)[C@@H]1CSCC(=O)N[C@@H](Cc2ccc(O)cc2)C(=O)N(C)[C@@H](C)C(=O)N[C@@H](CC(N)=O)C(=O)N2CCC[C@H]2C(=O)N[C@@H](CN)C(=O)N[C@@H](CC(C)C)C(=O)N2C[C@H](O)C[C@H]2C(=O)N[C@@H](Cc2c[nH]c3ccccc23)C(=O)NCC(=O)NC(Cc2c[nH]c3ccccc23)C(=O)N(C)[C@@H](CCCC)C(=O)N(C)[C@@H](CCCC)C(=O)N[C@@H](CC(C)C)C(=O)N1 (stereo partly shown) [Example 13100] ({CH2CO}-Y[NMeA]NP[Dap]L[Hyp]WG[ξW][NMeNle][NMeNle]LCG-NHBu; thioether N-14),7.22 to 8.00
5,CCCC[C@H]1C(=O)N(C)[C@@H](CCCC)C(=O)N[C@@H](CC(C)C)C(=O)N[C@H](C(=O)NCC(=O)N2CCN(C)CC2)CSCC(=O)N[C@@H](Cc2ccc(O)cc2)C(=O)N(C)[C@@H](C)C(=O)N[C@@H](CC(N)=O)C(=O)N2CCC[C@H]2C(=O)N[C@@H](CN)C(=O)N[C@@H](CC(C)C)C(=O)N2C[C@H](O)C[C@H]2C(=O)N[C@@H](Cc2c[nH]c3ccccc23)C(=O)NCC(=O)N[C@@H](Cc2c[nH]c3ccccc23)C(=O)N1C [Example 13089] ({CH2CO}-Y[NMeA]NP[Dap]L[Hyp]WGW[NMeNle][NMeNle]LCG-{Piperazinyl(4-Me)}; thioether N-14),7.22 to 8.00

# Now from value to compound:
row,pIC50,SMILES
1,7.22 to 8.00,CCCC[C@H]1C(=O)N(C)[C@@H](CCCC)C(=O)N[C@@H](CC(C)C)C(=O)N[C@H](C(=O)NCC(=O)NC2CCC(O)CC2)CSCC(=O)N[C@@H](Cc2ccc(O)cc2)C(=O)N(C)[C@@H](C)C(=O)N[C@@H](CC(N)=O)C(=O)N2CCC[C@H]2C(=O)N[C@@H](CN)C(=O)N[C@@H](CC(C)C)C(=O)N2C[C@H](O)C[C@H]2C(=O)N[C@@H](Cc2c[nH]c3ccccc23)C(=O)NCC(=O)NC(Cc2c[nH]c3ccccc23)C(=O)N1C (stereo partly shown) [Example 13106] ({CH2CO}-Y[NMeA]NP[Dap]L[Hyp]WG[ξW][NMeNle][NMeNle]LCG-X11; thioether N-14)
2,8.00 to 8.40,CCCC[C@H]1C(=O)N(C)[C@@H](CCCC)C(=O)N[C@@H](CC(C)C)C(=O)N[C@H](C(=O)NCC(=O)N2CCN(c3ccccc3)CC2)CSCC(=O)N[C@@H](Cc2ccc(O)cc2)C(=O)N(C)[C@@H](C)C(=O)N[C@@H](CC(N)=O)C(=O)N2CCC[C@H]2C(=O)N[C@@H](CN)C(=O)N[C@@H](CC(C)C)C(=O)N2C[C@H](O)C[C@H]2C(=O)N[C@@H](Cc2c[nH]c3ccccc23)C(=O)NCC(=O)NC(Cc2c[nH]c3ccccc23)C(=O)N1C (stereo partly shown) [Example 13117] ({CH2CO}-Y[NMeA]NP[Dap]L[Hyp]WG[ξW][NMeNle][NMeNle]LCG-{Piperazinyl(4-Ph)}; thioether N-14)
3,7.22 to 8.00,CCCC[C@H]1C(=O)N(C)[C@@H](CCCC)C(=O)N[C@@H](CC(C)C)C(=O)N[C@H](C(=O)NCC(=O)NCCCCCNC(=O)OC(C)(C)C)CSCC(=O)N[C@@H](Cc2ccc(O)cc2)C(=O)N(C)[C@@H](C)C(=O)N[C@@H](CC(N)=O)C(=O)N2CCC[C@H]2C(=O)N[C@@H](CN)C(=O)N[C@@H](CC(C)C)C(=O)N2C[C@H](O)C[C@H]2C(=O)N[C@@H](Cc2c[nH]c3ccccc23)C(=O)NCC(=O)NC(Cc2c[nH]c3ccccc23)C(=O)N1C (stereo partly shown) [Example 13112] ({CH2CO}-Y[NMeA]NP[Dap]L[Hyp]WG[ξW][NMeNle][NMeNle]LCG-X7; thioether N-14)
4,7.22 to 8.00,CCCC[C@H]1C(=O)N(C)[C@@H](CCCC)C(=O)N[C@@H](CC(C)C)C(=O)N[C@H](C(=O)NCC(=O)NCCC(=O)OC(C)(C)C)CSCC(=O)N[C@@H](Cc2ccc(O)cc2)C(=O)N(C)[C@@H](C)C(=O)N[C@@H](CC(N)=O)C(=O)N2CCC[C@H]2C(=O)N[C@@H](CN)C(=O)N[C@@H](CC(C)C)C(=O)N2C[C@H](O)C[C@H]2C(=O)N[C@@H](Cc2c[nH]c3ccccc23)C(=O)NCC(=O)NC(Cc2c[nH]c3ccccc23)C(=O)N1C (stereo partly shown) [Example 13109] ({CH2CO}-Y[NMeA]NP[Dap]L[Hyp]WG[ξW][NMeNle][NMeNle]LCG[βAla]-OtBu; thioether N-14)
5,7.22 to 8.00,CCCC[C@H]1C(=O)N(C)[C@@H](CCCC)C(=O)N[C@@H](CC(C)C)C(=O)N[C@H](C(=O)NCC(=O)NCCN(C)C(=O)OC(C)(C)C)CSCC(=O)N[C@@H](Cc2ccc(O)cc2)C(=O)N(C)[C@@H](C)C(=O)N[C@@H](CC(N)=O)C(=O)N2CCC[C@H]2C(=O)N[C@@H](CN)C(=O)N[C@@H](CC(C)C)C(=O)N2C[C@H](O)C[C@H]2C(=O)N[C@@H](Cc2c[nH]c3ccccc23)C(=O)NCC(=O)NC(Cc2c[nH]c3ccccc23)C(=O)N1C (stereo partly shown) [Example 13113] ({CH2CO}-Y[NMeA]NP[Dap]L[Hyp]WG[ξW][NMeNle][NMeNle]LCG-X3; thioether N-14)
